According to US6667165B2, “Method and compositions for reversible inhibition of thermostable polymerases” (Eppendorf AG, priority 2001, dated 2003):

Tests used:
Format in all cases: biochemical
Taq DNA polymerase [1] = target: T1, Taq DNA polymerase (Thermus aquaticus, UniProt P19821); assay: Primer extension assay quantified with picogreen (de-novo synthesized ds DNA); conditions: Mw4000, Mw5000, Mw8000 at 175 μmol, 30 μmol and 32 μmol; 5 minutes incubation; FIG. 10
T1 construct: purchased Eppendorf AG
Excerpt: FIG. 10 graphically illustrates the temperature dependent inhibition of Taq DNA polymerase by dextran sulfate Mw4000, Mw5000, and Mw8000 which have been quantitatively analyzed. In each reaction the amount of de-novo synthesized double-stranded DNA was quantified with picogreen on a Fluorescence Microplate Reader. The amount of double-stranded DNA in the control reactions with unmodified Taq polymerase at each temperature tested were taken as 100% activity at the corresponding reaction temperature. […] at the corresponding reaction temperature and multiplied by 100 to calculate the percent of residual activity of dextran sulfate inhibited Taq polymerase from the activity of the unmodified enzyme at that temperature (bold line graphs). 100 minus the percent of residual activity of dextran sulfate inhibited Taq polymerase represents the percent of relative activity inhibition of dextran sulfate/Taq polymerase complexes at each temperature shown with dotted line graphs.
Primer extension was set-up as described in Example 4. The final concentrations of dextran sulfate Mw4000, Mw5000 and Mw8000 were adjusted to 175 μmol, 30 μmol and 32 μmol, respectively. At each tested incubation temperature a control reaction was carried out with unmodified Taq polymerase. After 5 minutes incubation the reactions were stopped as described earlier. 25.2 μl out of 50 μl were used to quantify the yield of de-novo synthesized double-stranded DNA with picogreen. The picogreen stained DNA samples were measured on a Fluorescence Microplate Reader.
The amount of double-stranded DNA in the control reactions with unmodified Taq polymerase at each temperature tested were taken as 100% activity at the corresponding reaction temperature. […]

Taq DNA polymerase [2] = target: T1, Taq DNA polymerase; assay: M13 phage DNA primer extension assay (agarose gel read-out); conditions: for inhibition of Taq DNA polymerase at 40° C. (FIG. 5) / inhibition of Taq DNA polymerase (FIG. 6): 40° C.; for inhibitory effect on Taq DNA polymerase in primer extension assay: 51° C., carbohydrates 1% w/vol, ds Lambda DNA 5 μg/rxn, 10 minutes pre-incubation with Taq; for restoration of Taq DNA polymerase activity at 60° C.: concentration range tested, lowest 10 μmol
Excerpt: A simple non-radioactive primer extension assay was used to monitor the activity of Taq DNA polymerase for DNA synthesis at various temperatures. The universal −47 M13 24-mer sequencing primer (New England Biolabs, Inc.) was annealed to circular single-stranded virion DNA from E. coli phage M13 (New England Biolabs, Inc.) to form an appropriate template for DNA synthesis by Taq DNA polymerase.
During the assay reactions, the annealed primer is extended by stepwise addition of complementary nucleotides (dNTP) on the single-stranded template DNA with Taq polymerase. The polymerase mediated primer extension reaction transforms the circular single-stranded (ss) template DNA into a double-stranded (ds) plasmid-like circular DNA molecule, as shown in FIG. 1. A completely ds circular phage DNA molecule is synthesized when the de-novo synthesized complementary strand reaches the 5′ end of the extended primer. This terminates the DNA synthesis process due to the weak strand displacement activity of Taq DNA polymerase. The ss primed template DNA, the full length ds circular DNA synthesis product, and intermediate synthesis products with ds regions of variable length differ from each other by their electrophoretic mobility in 1% agarose gels. The initial DNA template and all reaction products can be separated and monitored by electrophoresis in a 1% […] agarose gel stained with ethidium bromide.
The electrophoretic mobility of the three species reciprocally correlates with the length of the de-novo synthesized complementary strand. With increasing length of the ds regions, the migration of intermediate primer extension products shifts toward the slow migrating band of ds circular DNA (full-length synthesis product). The amount (band intensity) of the ds full-length synthesis product, as well as the migration shift of intermediate primer extension product, were used as a measure for the activity and extension rate of Taq DNA polymerase under various reaction conditions.
After the denaturation/annealing reaction the primed ss template DNA was stored frozen at −20° C. until use. 5 μL of this primed ss template DNA mix were added into a 50 μL primer extension assay reaction, or 2 μL into a 20 μL assay, respectively. The primer extension assay reactions were set-up on ice in 0.2 mL PCR tubes adding the reaction components to the following final concentrations:
The primer extension reactions were incubated for either 20 or 40 minutes on Eppendorf Mastercyclers set to the desired reaction temperature (30° C.-70° C.). At the end of the incubation time the reaction were placed on ice and 1 μL of 100 mM EDTA was added to stop the reaction immediately. 20 μL of each primer extension assay reaction were loaded on the 1% agarose gel for further analysis.
Soluble carbohydrates 5% w/vol aqueous solutions in molecular biology grade water were prepared. The desired carbohydrates or ds DNA were added to the primer extension reaction described above in Example 2 to final concentrations of 1% w/vol. In modification of the original primer extension assay the reaction mixtures were set-up without the primed template DNA. The primer-template DNA was added to the Taq DNA polymerase/carbohydrate sample after a 10 minutes pre-incubation in order to permit preliminary interaction of the carbohydrate with the Taq DNA polymerase, i.e., pre-incubate the carbohydrate onto the Taq DNA polymerase. The primer extension reactions were incubated for 40 minutes at 51° C. (the critical temperature for specific primer annealing). 20 μl of the reaction mixtures were analyzed on 0.7% agarose gel.
Primer extension assays were carried out in the presence of various concentration of dextran sulfate Mw 1500 (see FIG. 4), Mw 4000, Mw 5000 and Mw 8000 (see FIGS. 5 and 6). The reaction set-up was modified so that the dextran sulfates were pre-mixed into the Taq polymerase solution (5 U/μl) to provide final concentrations as indicated in the Figures. […]

Taq DNA polymerase [3] = target: T1, Taq DNA polymerase; assay: 2 kb human β-globin gene fragment PCR, specificity and yield on agarose gel
Protocol: In order to amplify a predictable sized DNA fragment of the human β-globin gene, a pair of known primers was selected from a region of the human β-globin gene (Collins et al (1984) Prog Nucleic Acid Res Mol Biol 31:315-462 to yield PCR products with length of 2.0 kb: The Taq DNA polymerase 5 U/μl containing 0.2 mM dextran sulfate Mw4000 was used in the PCR mixtures (10 mM Tris-HCl, pH 8.3, 50 mM KCl, 2.5 mM Mg(OAc)2, 200 μM dNTP) in which human genomic DNA (100 ng) was used as template. The PCR was performed as follows: 94° C. for 2 min followed by 35 cycles of 55° C.—20 seconds, 72° C.—2:30 minutes and 94° C. for −15 seconds. The PCR products were subjected to agarose gel electrophoresis. Negative control experiments were carried out under the same PCR conditions except that unmodified Taq DNA Polymerase was used in the reaction. A positive control experiment was carried out in the same PCR conditions except that AmpliTaq Gold DNA Polymerase (Perkin Elmer Biosystems), the market leading product for performing highly specific hot start PCR, with the appropriate reaction buffer were used in the reaction.
The same basic PCR assay was performed as described in the previous Examples, except that Taq DNA polymerase preparations were mixed with increasing amounts of dextran sulfate Mw4000. […]

[4] = 20 minutes, first concentration ranges
[5] = 20 minutes, re-fined concentration ranges

T1 sequence (P19821 whole entry): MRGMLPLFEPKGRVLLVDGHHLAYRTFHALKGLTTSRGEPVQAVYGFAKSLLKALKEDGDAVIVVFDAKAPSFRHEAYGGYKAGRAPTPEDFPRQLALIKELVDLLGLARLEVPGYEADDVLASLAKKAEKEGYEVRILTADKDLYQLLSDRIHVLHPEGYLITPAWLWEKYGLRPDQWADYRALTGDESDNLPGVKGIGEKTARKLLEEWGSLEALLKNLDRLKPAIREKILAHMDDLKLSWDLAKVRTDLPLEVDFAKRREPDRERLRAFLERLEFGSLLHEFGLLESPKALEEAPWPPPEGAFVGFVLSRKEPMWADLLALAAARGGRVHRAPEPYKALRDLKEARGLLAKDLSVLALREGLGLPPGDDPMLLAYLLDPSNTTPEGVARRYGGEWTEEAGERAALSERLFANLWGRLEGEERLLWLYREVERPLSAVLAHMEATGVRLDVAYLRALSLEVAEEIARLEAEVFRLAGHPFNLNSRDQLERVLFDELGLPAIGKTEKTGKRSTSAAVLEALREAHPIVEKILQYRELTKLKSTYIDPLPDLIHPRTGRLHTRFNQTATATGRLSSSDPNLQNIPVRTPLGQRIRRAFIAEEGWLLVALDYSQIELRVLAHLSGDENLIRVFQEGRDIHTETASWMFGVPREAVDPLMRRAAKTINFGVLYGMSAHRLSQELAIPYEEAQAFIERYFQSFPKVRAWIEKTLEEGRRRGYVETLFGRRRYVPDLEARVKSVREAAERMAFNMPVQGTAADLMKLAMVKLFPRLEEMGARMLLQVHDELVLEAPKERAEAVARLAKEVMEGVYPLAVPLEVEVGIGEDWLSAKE

dextran sulfate [dextran sulfate Mw 5000]
temperature dependence of Taq DNA polymerase inhibition (relative to unmodified Taq) (Taq DNA polymerase [1]): inhibit Taq DNA polymerase in a temperature dependent manner | inhibition of Taq DNA polymerase at 40° C. (FIG. 5) (Taq DNA polymerase [2]; [4]): strong inhibition | inhibition of Taq DNA polymerase (FIG. 6) (Taq DNA polymerase [2]; [5]): strongest inhibition of all dextran sulfate derivatives tested | inhibitory effect on Taq DNA polymerase in primer extension assay (Taq DNA polymerase [2]; MW 5000): strong inhibition | inhibitory effect on Taq DNA polymerase in primer extension assay (Taq DNA polymerase [2]; listed as dextran sulfate having a molecular weight of 5000): strong inhibitor | concentration at which almost full Taq polymerase activity could be restored between 60-70° C. (Taq DNA polymerase [2]; 20 minutes, dextran sulfate pre-mixed into Taq polymerase solution): 1.25 µM | concentration range with strong inhibition at 40° C. and release of almost full activity at 70° C. (FIG. 5) (Taq DNA polymerase [2]; first concentration ranges, 40° C.-70° C., 20 minutes): 1.25 µmol | concentration range with strong inhibition at 40° C. and release of almost full activity at 70° C. (FIG. 6) (Taq DNA polymerase [2]; re-fined concentration ranges, 40° C.-70° C., 20 minutes): 1.25 µmol

dextran sulfate [dextran sulfate Mw 4000]
temperature dependence of Taq DNA polymerase inhibition (relative to unmodified Taq) (Taq DNA polymerase [1]): inhibit Taq DNA polymerase in a temperature dependent manner | effect on specificity of the PCR reaction (Taq DNA polymerase [3]; 100 ng human genomic DNA, Taq 5 U/μl containing 0.2 mM dextran sulfate, 35 cycles, FIG. 7): significantly enhanced the specificity | yield and specificity of the 2 kb PCR fragment versus concentration (Taq DNA polymerase [3]; increasing amounts of dextran sulfate, FIG. 8): clear correlation | inhibition of Taq DNA polymerase at 40° C. (FIG. 5) (Taq DNA polymerase [2]; [4]): strong inhibition | inhibition of Taq DNA polymerase (FIG. 6) (Taq DNA polymerase [2]; [5]): strong inhibition

dextran sulfate [dextran sulfate Mw 1500]
concentration at which partial release of inhibition was detected (Taq DNA polymerase [2]; 50° C. and 60° C., FIG. 4): < 50 µmol | restoration of Taq DNA polymerase activity at 60° C. (Taq DNA polymerase [2]; 20 minutes): only be partially restored | restoration of Taq DNA polymerase activity at 60° C. (Taq DNA polymerase [2]; 20 minutes, listed as dextran sulfate Mw 1,500): full synthesis activity could not be regained

methylcellulose [reference compound]
inhibitory effect on Taq DNA polymerase in primer extension assay (Taq DNA polymerase [2]): weak inhibitory effect

dextran sulfate [dextran sulfate Mw 8000]
temperature dependence of Taq DNA polymerase inhibition (relative to unmodified Taq) (Taq DNA polymerase [1]): inhibit Taq DNA polymerase in a temperature dependent manner | inhibition of Taq DNA polymerase at 40° C. (FIG. 5) (Taq DNA polymerase [2]; [4]): strong inhibition | inhibition of Taq DNA polymerase (FIG. 6) (Taq DNA polymerase [2]; [5]): strong inhibition
